# Legend:
# [1] = test system: IC/BPS model rats; assay: Cystometry (intravesical pressure and urination volume) in HCl-induced IC/BPS model rats; type: in vivo, rat
# Experimental: Through the catheter, 250 μL of saline (Sham group) or 250 μL of 0.1 M HCl (IC group) was instilled into the bladder and held for 1 minute, and then the bladder was washed twice with saline. The Sham and IC groups were each divided into two groups (n=7-8/group), and 200 μL of saline or 200 μL of RGDS peptide solution (500 mg/L saline solution, MedChemExpress) was administered intraperitoneally. On day 7 after administration, a polyethylene catheter was inserted and retained in the apex of the bladder, and a pressure transducer (MLT0699, ADInstruments Ltd, Dunedin, New Zealand), PowerLab 4/26 (ADInstruments Ltd, Dunedin New Zealand) were connected. A syringe pump (YSP-101, YMC Co., Ltd., Kyoto, Japan) was connected to the pressure transducer to measure intravesical pressure and urination volume while continuously instilling 40 μL/min saline solution into the bladder. The pressure at the urination event peak on the cystometrogram was defined as the maximum intravesical pressure, the peak interval as the urination interval, the pressure immediately after the peak as the basal intravesical pressure, the pressure immediately before the peak as the threshold pressure for urination, and the urination volume at the peak as urine volume per urination event.
# A similar study to Example 1 was conducted, except that the RGDS peptide used in Example 1 was replaced with 400 μL of cilengitide solution (6.75 g/L saline solution, Tokyo Kasei). In the cilengitide-administered group, the urination interval was prolonged compared to the group that received instillation of saline (FIG. 3), confirming that frequent urination was ameliorated.
# [2] = test system: IC/BPS model rats; assay: Pain threshold by electronic von Frey filament on lower abdomen in IC/BPS model rats; type: in vivo, rat; conditions: IC+R group vs IC group; day 5 after administration; average of three measurements; FIG. 4
# Experimental: Sham, IC, and IC+R groups were prepared as in Example 1. On day 5 after administration, the rats were placed in a metabolic cage with a wire mesh bottom and allowed to acclimate for 10 minutes, and the lower abdomen was stimulated with increasing pressure using an electronic von Frey filament (BIO-EVF, Bioseb, Vitrolles, France). The pressure at which an escape response was observed was measured as the pain threshold. This measurement was repeated three times with a 5-minute interval, and the average was calculated. The pain threshold increased in the IC+R group compared to the IC group (FIG. 4), confirming an ameliorating trend of pain.
# [3] = among Sham, Sham+R, IC, IC+R groups, 200 μL RGDS peptide solution (500 mg/L) intraperitoneally, day 7
Compound,"urination interval ([1]; cilengitide-administered IC group vs saline group, 400 μL cilengitide solution (6.75 g/L saline), FIG. 3)",pain threshold (pressure at which an escape response was observed) [2],"urination interval ([1]; IC+R group vs IC group given saline, 200 μL RGDS peptide solution (500 mg/L saline) intraperitoneally, day 7 after administration, FIGS. 1 and 2)","basal intravesical pressure [1, 3]","maximum intravesical pressure [1, 3]","threshold pressure for urination [1, 3]"
CC(C)[C@H]1C(=O)N[C@@H](CCCN=C(N)N)C(=O)NCC(=O)N[C@@H](CC(=O)O)C(=O)N[C@H](Cc2ccccc2)C(=O)N1C [cilengitide],prolonged,,,,,
RGDS [RGDS peptide],,increased,significantly prolonged,did not differ among all groups,did not differ among all groups,did not differ among all groups
